US20240270821A1, “GIP/GLP1/GCG TRI-RECEPTOR AGONISTS AND USES THEREOF” (priority 2023, published 2024)
Read-outs that look alike come from different tables or passages of the source. Starred links: 1 amine or outer side, 2 acyl side, 3 side chain; linkers in the order of their positions; H or OH if unused. Non-standard residues stand in square brackets, D forms with d. Residues, ends and D or L forms follow the SMILES beside them. Groups on a side chain read outwards from the residue. No end group written: not given here. *: point of attachment. C20 diacid = O=C(O)CCCCCCCCCCCCCCCCCCC(=O)*; C18 diacid = O=C(O)CCCCCCCCCCCCCCCCC(=O)*; αMePhe(2-F) = C[C@](N)(Cc1ccccc1F)C(=O)O; γGlu = O=C(O)[C@H](CCC(=O)[*:2])N[*:1]; NMeY = CN[C@@H](Cc1ccc(O)cc1)C(=O)O; αMe4Pal = C[C@](N)(Cc1ccncc1)C(=O)O; αMeY = C[C@](N)(Cc1ccc(O)cc1)C(=O)O; αMeF = C[C@](N)(Cc1ccccc1)C(=O)O; 4Pal = N[C@@H](Cc1ccncc1)C(=O)O; αMeL = CC(C)C[C@](C)(N)C(=O)O; αMeS = C[C@](N)(CO)C(=O)O; Orn = NCCC[C@H](N)C(=O)O; AEEA = NCCOCCOCC(=O)O; Aib = CC(C)(N)C(=O)O

Legend:
Assay type in all cases: cell-based
[1] = biological target: T1, hGLP-1R (Homo sapiens, UniProt P43220); experiment: Functional cAMP activation in the presence of 0.1% casein (no HSA); settings: read-out: Relative cAMP EC50, hGLP-1R;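 further: intracellular cAMP rise after 30 min at 37 °C read by HTRF, normalized between buffer only (0%) and maximal control ligand (100%), four-parameter variable-slope fit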
T1 sequence (P43220 24-463): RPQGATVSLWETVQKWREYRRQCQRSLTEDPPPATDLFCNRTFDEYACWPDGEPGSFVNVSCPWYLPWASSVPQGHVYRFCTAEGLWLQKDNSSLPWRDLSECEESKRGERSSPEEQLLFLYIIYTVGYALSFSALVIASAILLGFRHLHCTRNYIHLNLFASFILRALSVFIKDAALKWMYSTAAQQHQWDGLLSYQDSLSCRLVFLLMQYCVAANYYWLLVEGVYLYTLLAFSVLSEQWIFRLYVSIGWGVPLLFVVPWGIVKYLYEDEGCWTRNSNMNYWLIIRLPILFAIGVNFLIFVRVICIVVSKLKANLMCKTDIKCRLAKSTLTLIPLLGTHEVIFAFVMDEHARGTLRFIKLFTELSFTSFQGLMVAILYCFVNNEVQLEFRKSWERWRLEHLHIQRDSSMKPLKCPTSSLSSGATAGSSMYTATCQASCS

[2] = biological target: T1, hGLP-1R; experiment: Functional cAMP activity in the presence of 1% HSA; settings: read-out: cAMP Rel EC50, hGLP-1R
[3] = biological target: hGcgR (Homo sapiens, UniProt P47871); experiment: Functional cAMP activation in the presence of 0.1% casein (no HSA); settings: read-out: Relative cAMP EC50, hGcgR;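 further: intracellular cAMP rise after 30 min at 37 °C, read by HTRF against a cAMP standard curve, scaled from buffer only (0%) to maximal control ligand response (100%)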
Sequence of hGcgR (P47871 26-477): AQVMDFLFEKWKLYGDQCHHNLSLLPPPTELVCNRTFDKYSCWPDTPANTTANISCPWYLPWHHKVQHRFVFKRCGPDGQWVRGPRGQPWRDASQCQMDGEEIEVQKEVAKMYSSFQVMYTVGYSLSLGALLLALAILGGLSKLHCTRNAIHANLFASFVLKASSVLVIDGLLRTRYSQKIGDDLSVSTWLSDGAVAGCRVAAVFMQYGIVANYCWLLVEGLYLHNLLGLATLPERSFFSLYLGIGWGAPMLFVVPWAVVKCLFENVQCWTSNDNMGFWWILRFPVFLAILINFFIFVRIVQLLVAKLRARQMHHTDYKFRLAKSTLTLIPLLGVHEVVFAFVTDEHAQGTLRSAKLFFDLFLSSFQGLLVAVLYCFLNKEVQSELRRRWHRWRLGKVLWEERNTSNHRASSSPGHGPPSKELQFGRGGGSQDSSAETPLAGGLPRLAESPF

[4] = biological target: T2, hGIPR (Homo sapiens, UniProt P48546); experiment: as above; settings: read-out: Relative cAMP EC50, hGIPR;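 further: intracellular cAMP rise after 30 min at 37 °C read by HTRF against a standard curve, scaled between buffer alone (0%) and top control ligand concentration (100%), four-parameter fit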
T2 sequence (P48546 22-466): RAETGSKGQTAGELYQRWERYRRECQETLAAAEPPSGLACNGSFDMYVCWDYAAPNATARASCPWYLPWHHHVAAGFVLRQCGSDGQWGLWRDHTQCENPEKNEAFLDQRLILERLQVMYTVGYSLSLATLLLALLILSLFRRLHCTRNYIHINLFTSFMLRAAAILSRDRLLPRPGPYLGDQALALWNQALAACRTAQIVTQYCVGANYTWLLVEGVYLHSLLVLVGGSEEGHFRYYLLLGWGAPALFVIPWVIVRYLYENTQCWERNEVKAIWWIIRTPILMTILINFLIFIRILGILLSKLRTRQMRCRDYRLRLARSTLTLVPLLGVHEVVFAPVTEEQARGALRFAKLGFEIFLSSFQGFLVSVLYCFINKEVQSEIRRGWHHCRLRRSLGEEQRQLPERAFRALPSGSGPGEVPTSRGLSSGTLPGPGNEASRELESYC

[5] = biological target: T2, hGIPR; experiment: Functional cAMP activity in the presence of 1% HSA; settings: read-out: cAMP Rel EC50, hGIPR
[6] = biological target: human GcgR (Homo sapiens, UniProt P47871); experiment: Functional cAMP activity in the presence of 1% HSA; settings: read-out: cAMP Rel EC50, hGcgR
Sequence of human GcgR (P47871 26-477): as the sequence (P47871 26-477) above

[7] = in the presence of 0.1% casein (no HSA), geometric mean
[8] = 0.1% casein, no HSA, geometric mean

CC[C@H](C)[C@H](NC(=O)[C@H](Cc1ccccc1)NC(=O)[C@H](C)NC(=O)C(C)(C)NC(=O)[C@H](CCC(N)=O)NC(=O)[C@H](C)NC(=O)[C@H](CCCCNC(=O)COCCOCCNC(=O)CC[C@H](NC(=O)CCCCCCCCCCCCCCCCC(=O)O)C(=O)O)NC(=O)[C@H](CCCCN)NC(=O)[C@H](CC(=O)O)NC(=O)[C@H](CC(C)C)NC(=O)[C@](C)(CC(C)C)NC(=O)[C@@H](NC(=O)[C@H](CO)NC(=O)[C@H](Cc1ccc(O)cc1)NC(=O)[C@H](CC(=O)O)NC(=O)[C@H](CO)NC(=O)[C@@H](NC(=O)[C@](C)(Cc1ccccc1F)NC(=O)[C@@H](NC(=O)CNC(=O)[C@H](CCC(N)=O)NC(=O)C(C)(C)NC(=O)[C@@H](N)Cc1ccc(O)cc1)[C@@H](C)O)[C@@H](C)O)[C@@H](C)CC)C(=O)N[C@@H](CCC(=O)O)C(=O)N[C@@H](Cc1ccc(O)cc1)C(=O)N[C@@H](CC(C)C)C(=O)N[C@@H](CCC(=O)O)C(=O)N[C@@H](CCC(=O)O)C(=O)NCC(=O)NCC(=O)N1CCC[C@H]1C(=O)N[C@@H](CO)C(=O)N[C@@H](CO)C(=O)NCC(=O)N[C@@H](C)C(=O)N1CCC[C@H]1C(=O)N[C@@H](CCC(=O)O)C(=O)N1CCC[C@H]1C(=O)N[C@@H](CO)C(N)=O [Example 423] (H-Y[Aib]QGT[αMePhe(2-F)]TSDYSI[αMeL]LDKK([AEEA-γGlu-C18 diacid])AQ[Aib]AFIEYLEEGGPSSGAPEPS-NH2)
EC50 [1]: 0.194 nM | EC50 [2]: 28.7 nM | EC50 [3]: 1.92 nM | EC50 [4]: 0.0114 nM | EC50 [5]: 3.07 nM | EC50 [6]: 319 nM

CC[C@H](C)[C@H](NC(=O)[C@H](Cc1ccccc1)NC(=O)[C@H](C)NC(=O)C(C)(C)NC(=O)[C@H](CCC(N)=O)NC(=O)[C@H](C)NC(=O)[C@H](CCCCNC(=O)CC[C@H](NC(=O)CC[C@H](NC(=O)CCCCCCCCCCCCCCCCC(=O)O)C(=O)O)C(=O)O)NC(=O)[C@H](CCCCN)NC(=O)[C@H](CC(=O)O)NC(=O)[C@H](CC(C)C)NC(=O)[C@](C)(CC(C)C)NC(=O)[C@@H](NC(=O)[C@H](CO)NC(=O)[C@H](Cc1ccncc1)NC(=O)[C@H](CC(=O)O)NC(=O)[C@H](CO)NC(=O)[C@@H](NC(=O)[C@](C)(Cc1ccccc1F)NC(=O)[C@@H](NC(=O)CNC(=O)[C@H](CCC(N)=O)NC(=O)C(C)(C)NC(=O)[C@@H](N)Cc1ccc(O)cc1)[C@@H](C)O)[C@@H](C)O)[C@@H](C)CC)C(=O)N[C@@H](CCC(=O)O)C(=O)N[C@@H](Cc1ccc(O)cc1)C(=O)N[C@@H](CC(C)C)C(=O)N[C@@H](CCC(=O)O)C(=O)N[C@@H](CCC(=O)O)C(=O)NCC(=O)NCC(=O)N1CCC[C@H]1C(=O)N[C@@H](CO)C(=O)N[C@@H](CO)C(=O)NCC(=O)N[C@@H](C)C(=O)N1CCC[C@H]1C(=O)N1CCC[C@H]1C(=O)N1CCC[C@H]1C(=O)N[C@@H](CO)C(N)=O [Example 440] (H-Y[Aib]QGT[αMePhe(2-F)]TSD[4Pal]SI[αMeL]LDKK([γGlu-γGlu-C18 diacid])AQ[Aib]AFIEYLEEGGPSSGAPPPS-NH2)
EC50 [1]: 0.467 nM | EC50 [2]: 27.4 nM | EC50 [3]: 7.14 nM | EC50 [4]: 0.0226 nM | EC50 [5]: 1.81 nM | EC50 [6]: 830 nM

H-Y[Aib]QGTFTSD[4Pal]SQ[αMeL]LDKK([AEEA-γGlu-C18 diacid])AQ[αMe4Pal]AFIEYLIEGGPSSGAPPPSGS-NH2 [Example 826]
EC50 [1, 7]: 2.75 nM | EC50 [2]: 202 nM | EC50 [3, 7]: 5.59 nM | EC50 [4, 7]: 0.581 nM | EC50 [5]: 81.6 nM | EC50 [6]: 441 nM

H-Y[Aib]QGT[αMePhe(2-F)]TSD[4Pal][αMeS]ILLD[Orn]K([γGlu-γGlu-C18 diacid])AQ[Aib][Orn]FI[dE]YLIEGGPSSGEPPPEGSEE-NH2 [Example 603]
EC50 [1]: 0.688 nM | EC50 [2]: 49.5 nM | EC50 [3]: 5.43 nM | EC50 [4]: 0.102 nM | EC50 [5]: 4.99 nM | EC50 [6]: 419 nM

H-Y[Aib]QGTFTSD[4Pal]S[Orn][αMeL]LDKK([γGlu-γGlu-C18 diacid])AQ[αMe4Pal]AFIEYLIAGGPSSGEPPPSGE-NH2 [Example 979]
EC50 [1, 7]: 2.72 nM | EC50 [2]: 257 nM | EC50 [3, 7]: 3.34 nM | EC50 [4, 7]: 0.181 nM | EC50 [5]: 19.2 nM | EC50 [6]: 359 nM

Y[Aib]QGTFTSDFS[Orn][αMeL]LDKK([γGlu-γGlu-C18 diacid])AQ[Aib]AFIEYLLEGGPSSGAPPPSGT-NH2 [Example 260]
EC50 [1, 7]: 3.85 nM | EC50 [2]: 160 nM | EC50 [3, 7]: 5.04 nM | EC50 [4, 7]: 0.251 nM | EC50 [5]: 12.4 nM | EC50 [6]: 162 nM

H-Y[Aib]QGT[αMePhe(2-F)]TSD[4Pal]SILLDKQAQK([AEEA-AEEA-γGlu-C20 diacid])AFIEYLLEGGPSSGEPPPSEG-NH2 [Example 347]
EC50 [1, 7]: 0.798 nM | EC50 [2]: 254 nM | EC50 [3, 7]: 8.88 nM | EC50 [4, 7]: 0.0634 nM | EC50 [5]: 17.3 nM | EC50 [6]: 3650 nM

CC[C@H](C)[C@H](NC(=O)[C@H](CCCCN)NC(=O)[C@H](CC(=O)O)NC(=O)[C@H](CC(C)C)NC(=O)[C@](C)(CC(C)C)NC(=O)[C@@H](NC(=O)[C@H](CO)NC(=O)[C@H](Cc1ccc(O)cc1)NC(=O)[C@H](CC(=O)O)NC(=O)[C@H](CO)NC(=O)[C@@H](NC(=O)[C@](C)(Cc1ccccc1F)NC(=O)[C@@H](NC(=O)CNC(=O)[C@H](CCC(N)=O)NC(=O)C(C)(C)NC(=O)[C@@H](N)Cc1ccc(O)cc1)[C@@H](C)O)[C@@H](C)O)[C@@H](C)CC)C(=O)N[C@@H](C)C(=O)N[C@@H](CCC(N)=O)C(=O)NC(C)(C)C(=O)N[C@@H](C)C(=O)N[C@@H](Cc1ccccc1)C(=O)N[C@H](C(=O)N[C@@H](CCCCNC(=O)COCCOCCNC(=O)CC[C@H](NC(=O)CCCCCCCCCCCCCCCCC(=O)O)C(=O)O)C(=O)N[C@@H](Cc1ccc(O)cc1)C(=O)N[C@@H](CC(C)C)C(=O)N[C@@H](CCC(=O)O)C(=O)N[C@@H](CCC(=O)O)C(=O)NCC(=O)NCC(=O)N1CCC[C@H]1C(=O)N[C@@H](CO)C(=O)N[C@@H](CO)C(=O)NCC(=O)N[C@@H](C)C(=O)N1CCC[C@H]1C(=O)N1CCC[C@H]1C(=O)N1CCC[C@H]1C(=O)N[C@@H](CO)C(N)=O)[C@@H](C)CC [Example 455] (H-Y[Aib]QGT[αMePhe(2-F)]TSDYSI[αMeL]LDKIAQ[Aib]AFIK([AEEA-γGlu-C18 diacid])YLEEGGPSSGAPPPS-NH2)
EC50 [1]: 0.49 nM | EC50 [2]: 105 nM | EC50 [3]: 4.36 nM | EC50 [4]: 0.0182 nM | EC50 [5]: 5.2 nM | EC50 [6]: 1200 nM

H-Y[Aib]QGT[αMePhe(2-F)]TSD[4Pal][αMeS]I[αMeL]LD[Orn]K([γGlu-γGlu-C18 diacid])AQ[Aib][Orn]FI[dE][αMeY]LAEGGPSSGEPPPSGAEE-NH2 [Example 591]
EC50 [1]: 0.773 nM | EC50 [2]: 44.5 nM | EC50 [3]: 4.67 nM | EC50 [4]: 0.0579 nM | EC50 [5]: 3 nM | EC50 [6]: 234 nM

Y[Aib]QGT[αMePhe(2-F)]TSD[4Pal][αMeS]I[αMeL]LD[Orn]K([γGlu-γGlu-C18 diacid])AQ[Aib][Orn]FI[dE][αMeY]LAEGGPSSGEPPPSGTEE-NH2 [Example 571]
EC50 [1]: 0.603 nM | EC50 [2]: 42.7 nM | EC50 [3]: 3.27 nM | EC50 [4]: 0.0746 nM | EC50 [5]: 4.23 nM | EC50 [6]: 243 nM

H-[NMeY][Aib]QGT[αMeF]TSDYSILLDKIAAK([AEEA-AEEA-γGlu-C20 diacid])AFIEYLIEGGPSSGEPPPSEG-NH2 [Example 299]
EC50 [1, 7]: 0.963 nM | EC50 [2]: 380 nM | EC50 [3, 7]: 2.54 nM | EC50 [4, 7]: 0.137 nM | EC50 [5]: 40.2 nM | EC50 [6]: 1700 nM

H-Y[Aib]QGT[αMePhe(2-F)]TSD[4Pal]SI[αMeL]LD[Orn][Orn]([γGlu-γGlu-C18 diacid])AQ[αMe4Pal][Orn]FI[dE][αMeY]LIEGGPSSGEPPPETE-NH2 [Example 1209]
EC50 [1, 8]: 0.41 nM | EC50 [2]: 37.7 nM | EC50 [3, 8]: 0.97 nM | EC50 [4, 8]: 0.00819 nM | EC50 [5]: 0.565 nM | EC50 [6]: 124 nM

H-Y[Aib]QGTFTSDFSK[αMeL]LDKK([AEEA-AEEA-γGlu-C18 diacid])AQ[Aib]AFIEYLLEGGESSGAPPPSGS-NH2 [Example 147]
EC50 [1, 7]: 4.26 nM | EC50 [2]: 964 nM | EC50 [3, 7]: 4.39 nM | EC50 [4, 7]: 0.343 nM | EC50 [5]: 108 nM | EC50 [6]: 877 nM

H-Y[Aib]QGT[αMePhe(2-F)]TSD[4Pal]SI[αMeL]LDKK([γGlu-γGlu-C18 diacid])AQ[Aib]AFIEYLEEGGPSSGAPPPSGEGE-NH2 [Example 623]
EC50 [1]: 0.907 nM | EC50 [2]: 62.2 nM | EC50 [3]: 7.94 nM | EC50 [4]: 0.0224 nM | EC50 [5]: 1.48 nM | EC50 [6]: 832 nM
